Read-outs that look alike come from different tables or passages of the source.
How the values were obtained:
[1] = system: platelet aggregation; assay: Platelet aggregation inhibitory activity (ADP-induced, human platelet rich plasma); assay type: cell-based; conditions: Homo sapiens, Table 3, same manner as Example 17
Method in brief: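 Citrated human platelet-rich plasma […] was stirred with test compound for 2 min at 37 °C. Aggregation was then induced with ADP at 3 μg/ml final and monitored by nephelometry. IC50 is the concentration giving 50% inhibition of aggregation.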

[2] = system: human fibronectin; assay: Binding assay of platelet to adhesive protein: fibronectin (receptor binding inhibition); conditions: Table 4; fixed activated human platelets, 37° C., 60 minutes
Method in brief: (§1)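 Washed human platelets, activated with 5 µM epinephrine and 30 µM ADP, then paraformaldehyde-fixed, added at 10^8/mL with compound to wells coated with 5 µg/mL fibrinogen (fibronectin-depleted), fibronectin or vitronectin; 60 min, 37 °C. Bound platelets detected with HRP anti-mouse IgG and o-phenylenediamine, A490.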

[3] = molecular target: T1, human fibrinogen (Homo sapiens, UniProt P05106+P08514); assay: Binding assay of platelet to adhesive protein: fibrinogen (receptor binding inhibition); conditions: Table 4; fixed activated human platelets, 37° C., 60 minutes
T1 construct: centrifuged at 11000 rpm for two minutes to give human platelet; from tissue
T1 sequence (P08514 32-887 limits assumed): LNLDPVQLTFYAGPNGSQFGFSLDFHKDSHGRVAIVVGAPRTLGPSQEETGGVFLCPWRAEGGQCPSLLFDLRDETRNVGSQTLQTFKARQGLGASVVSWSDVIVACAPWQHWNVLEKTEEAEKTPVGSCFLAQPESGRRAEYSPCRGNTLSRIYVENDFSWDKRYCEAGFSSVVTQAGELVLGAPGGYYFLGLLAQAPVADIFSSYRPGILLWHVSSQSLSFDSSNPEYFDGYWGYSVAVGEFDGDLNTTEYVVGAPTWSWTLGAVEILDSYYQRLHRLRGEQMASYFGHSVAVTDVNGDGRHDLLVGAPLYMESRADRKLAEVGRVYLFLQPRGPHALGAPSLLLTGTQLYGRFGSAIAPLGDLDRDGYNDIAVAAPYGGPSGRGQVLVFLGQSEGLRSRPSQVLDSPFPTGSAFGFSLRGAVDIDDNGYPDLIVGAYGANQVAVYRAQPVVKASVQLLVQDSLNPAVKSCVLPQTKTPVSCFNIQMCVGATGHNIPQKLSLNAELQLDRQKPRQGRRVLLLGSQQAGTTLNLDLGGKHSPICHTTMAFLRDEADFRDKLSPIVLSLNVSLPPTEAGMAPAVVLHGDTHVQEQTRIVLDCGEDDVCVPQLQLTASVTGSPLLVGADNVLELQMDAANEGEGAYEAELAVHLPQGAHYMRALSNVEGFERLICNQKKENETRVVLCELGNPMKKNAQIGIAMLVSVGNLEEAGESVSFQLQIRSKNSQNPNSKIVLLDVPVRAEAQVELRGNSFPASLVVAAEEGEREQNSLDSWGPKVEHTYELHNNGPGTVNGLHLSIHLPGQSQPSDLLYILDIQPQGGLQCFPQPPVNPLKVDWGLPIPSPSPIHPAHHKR
T1 sequence (P08514 891-1039 limits assumed): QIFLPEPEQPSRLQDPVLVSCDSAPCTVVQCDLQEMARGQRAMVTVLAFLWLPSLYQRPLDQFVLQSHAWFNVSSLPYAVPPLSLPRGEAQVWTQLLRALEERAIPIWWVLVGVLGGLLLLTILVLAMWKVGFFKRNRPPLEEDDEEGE
T1 sequence (P05106 27-788): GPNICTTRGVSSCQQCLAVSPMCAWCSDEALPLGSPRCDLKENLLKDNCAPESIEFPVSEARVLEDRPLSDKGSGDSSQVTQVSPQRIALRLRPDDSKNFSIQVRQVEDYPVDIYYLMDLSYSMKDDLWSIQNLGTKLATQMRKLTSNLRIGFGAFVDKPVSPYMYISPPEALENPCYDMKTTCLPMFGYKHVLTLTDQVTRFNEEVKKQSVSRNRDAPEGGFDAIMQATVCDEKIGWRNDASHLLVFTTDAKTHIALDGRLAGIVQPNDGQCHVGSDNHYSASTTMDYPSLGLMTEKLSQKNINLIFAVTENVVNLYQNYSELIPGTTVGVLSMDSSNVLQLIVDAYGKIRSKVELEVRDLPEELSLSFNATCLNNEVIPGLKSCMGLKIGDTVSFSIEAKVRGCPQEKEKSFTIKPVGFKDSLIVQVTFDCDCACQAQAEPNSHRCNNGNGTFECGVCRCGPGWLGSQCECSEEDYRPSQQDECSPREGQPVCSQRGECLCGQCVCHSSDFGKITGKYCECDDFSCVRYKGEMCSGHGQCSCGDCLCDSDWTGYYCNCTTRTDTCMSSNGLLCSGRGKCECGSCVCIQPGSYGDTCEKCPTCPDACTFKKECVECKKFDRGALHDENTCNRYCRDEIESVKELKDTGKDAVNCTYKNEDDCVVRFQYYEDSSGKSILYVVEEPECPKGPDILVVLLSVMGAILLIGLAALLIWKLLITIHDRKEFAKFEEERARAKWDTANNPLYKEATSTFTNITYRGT
Method in brief: as §1

[4] = system: human vitronectin; assay: Binding assay of platelet to adhesive protein: vitronectin (receptor binding inhibition); conditions: Table 4; fixed activated human platelets, 37° C., 60 minutes; read-out: receptor binding inhibition (IC50), Bitronectin
Method in brief: as §1

[5] = system: platelet aggregation; assay: Platelet aggregation inhibitory activity (ex vivo) after oral administration; assay type: in vivo; conditions: Cavia porcellus, guinea pig, oral 0.1 mg/kg, ADP 10 μg/ml
Method in brief: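 Guinea pigs dosed orally at 0.1 mg/kg; citrated carotid blood taken before and at 0.5, 1, 2, 4 and 6 h. PRP aggregation induced by ADP (10 μg/ml final) at 37° C, measured turbidimetrically; inhibition = (1 − MAR sample/MAR predose) × 100.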

IC50 [1]: 17 nM
IC50 [2]: 510 nM
IC50 [3]: 6.3 nM
IC50 [4]: 540 nM
SMILES: Cc1ccc(S(=O)(=O)N[C@@H](CNC(=O)CCNC(=O)c2ccc(C(=N)N)cc2)C(=O)O)cc1 [Example 76, (2S)-3-(3-(4-amidinobenzoylamino)propanoylamino)-2-(4-methyl)benzenesulfonylaminopropanoic Acid]
inhibition in vivo at 0.1 mg/kg ([5]; 0.5 hr, read-out: platelet aggregation inhibitory rate (%), 0.5 hr): 100%
inhibition in vivo at 0.1 mg/kg ([5]; 1 hr, read-out: platelet aggregation inhibitory rate (%), 1 hr): 100%
inhibition in vivo at 0.1 mg/kg ([5]; 2 hrs, read-out: platelet aggregation inhibitory rate (%), 2 hrs): 100%
inhibition in vivo at 0.1 mg/kg ([5]; 4 hrs, read-out: platelet aggregation inhibitory rate (%), 4 hrs): 100%
inhibition in vivo at 0.1 mg/kg ([5]; 6 hrs, read-out: platelet aggregation inhibitory rate (%), 6 hrs): 100%

Source: patent US6048854A, “2,3-diaminopropionic acid derivative” (Sumitomo Pharmaceuticals Company, Limited, priority 1993, dated 2000)
